According to patent US20260325533A1, “CDK INHIBITOR COMPOUNDS” (ALEKSIA THERAPEUTICS, INC., priority 2023, published 2026):
Read-outs that look alike come from different tables or passages of the source.

Columns and labels:
Assay type in all cases: biochemical
CDK1/CCNB1 = CDK1/CCNB1 (Homo sapiens, UniProt P06493); assay: CDK1 homogeneous time-resolved fluorescence (HTRF) kinase assay; conditions: CDK1/CCNB
Summary of the method: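 HTRF assay with 0.5 nM CDK1/CCNB1, 1 mM ATP, 50 nM ULight-eIF4E-BP1 (Thr37/46) peptide; compound preincubated 20 min, reaction 60 min at 23 °C, EDTA stop, Eu-anti-phospho antibody detection. 11-point half-log titration from 10 μM, 1% DMSO; IC50 from 665 nm or 665/615 signal.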

CDK2/CCNE1 = CDK2/CCNE1 (Homo sapiens, UniProt P24941); assay: CDK2 homogeneous time-resolved fluorescence (HTRF) kinase assay; conditions: CDK2/CCNE
Summary of the method: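 CDK2/CCNE1 (3 nM) preincubated 20 min at 23 °C with compound, then reacted 60 min at 23 °C with 1 mM ATP and 50 nM ULight-4E-BP1 (Thr37/46) peptide. Stopped with EDTA, phospho-peptide detected by Eu-anti-phospho antibody (665 nm or 665/615 ratio). IC50 from 11-point half-log titrations typically starting at 10 μM.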

CDK4/CCND3 = CDK4/CCND3 (Homo sapiens, UniProt P11802); assay: CDK4 homogeneous time-resolved fluorescence (HTRF) kinase assay; conditions: CDK4/CCND
Chain of CDK4/CCND3 (P11802 whole entry): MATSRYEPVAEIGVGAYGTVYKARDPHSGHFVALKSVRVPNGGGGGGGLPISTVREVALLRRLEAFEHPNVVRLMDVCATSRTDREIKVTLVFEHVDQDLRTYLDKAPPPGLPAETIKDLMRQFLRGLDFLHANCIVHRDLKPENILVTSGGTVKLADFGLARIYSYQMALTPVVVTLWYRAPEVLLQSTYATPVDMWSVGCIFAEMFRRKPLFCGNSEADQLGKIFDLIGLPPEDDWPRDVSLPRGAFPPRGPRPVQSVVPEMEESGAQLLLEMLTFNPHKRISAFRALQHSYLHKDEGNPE
Chain of CDK4/CCND3 (P30281 whole entry partner): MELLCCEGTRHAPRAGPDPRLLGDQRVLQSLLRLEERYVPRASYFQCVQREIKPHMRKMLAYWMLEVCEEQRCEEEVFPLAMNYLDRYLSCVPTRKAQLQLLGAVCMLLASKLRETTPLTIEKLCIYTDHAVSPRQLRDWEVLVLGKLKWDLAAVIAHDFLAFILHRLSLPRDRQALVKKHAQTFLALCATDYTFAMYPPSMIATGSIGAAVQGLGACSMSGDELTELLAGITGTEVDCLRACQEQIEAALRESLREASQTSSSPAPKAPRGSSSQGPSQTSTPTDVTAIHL
Summary of the method: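 Steps: compound plus 1.5 nM CDK4/CCND3, 20 min, 23 °C; add 1 mM ATP and 50 nM ULight-4E-BP1 (Thr37/46) peptide, 60 min; stop with 10 mM EDTA; add 2 nM Eu anti-phospho antibody, 60 min; read 665 nm. IC50 from 11-point half-log series starting 10 μM.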

CDK6/CCND1 = CDK6/CCND1 (Homo sapiens, UniProt Q00534); assay: CDK6 homogeneous time-resolved fluorescence (HTRF) kinase assay; conditions: CDK6/CCND, 1 mM ATP
Chain of CDK6/CCND1 (Q00534 whole entry): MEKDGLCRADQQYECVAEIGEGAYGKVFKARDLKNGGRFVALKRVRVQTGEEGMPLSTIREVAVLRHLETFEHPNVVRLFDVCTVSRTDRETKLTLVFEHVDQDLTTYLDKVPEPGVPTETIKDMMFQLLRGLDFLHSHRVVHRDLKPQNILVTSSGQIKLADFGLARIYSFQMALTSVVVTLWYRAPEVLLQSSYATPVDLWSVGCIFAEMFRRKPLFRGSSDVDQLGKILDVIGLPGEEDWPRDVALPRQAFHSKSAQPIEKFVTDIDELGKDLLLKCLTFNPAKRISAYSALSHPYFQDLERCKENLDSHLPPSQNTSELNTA
Chain of CDK6/CCND1 (P24385 whole entry partner): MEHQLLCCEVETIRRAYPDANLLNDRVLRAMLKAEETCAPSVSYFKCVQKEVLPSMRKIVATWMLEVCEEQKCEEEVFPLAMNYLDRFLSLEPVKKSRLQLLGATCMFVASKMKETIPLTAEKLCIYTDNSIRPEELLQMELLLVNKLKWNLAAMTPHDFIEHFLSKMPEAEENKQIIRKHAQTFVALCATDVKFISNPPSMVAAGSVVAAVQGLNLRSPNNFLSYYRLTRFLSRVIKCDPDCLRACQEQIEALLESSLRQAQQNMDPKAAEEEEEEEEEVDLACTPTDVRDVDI
Summary of the method: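 Enzyme pre-incubated 20 min at 23 °C with compound, then reacted 60 min at 23 °C with 1 mM ATP and 50 nM ULight-4E-BP1 (Thr37/46) peptide; 1 nM enzyme, 1% DMSO. EDTA-stopped, Eu-anti-phospho antibody TR-FRET read (665 nm or 665/615 ratio); 11-point half-log titration from 10 μM gave IC50.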

[1] = >250 nM, read-out: CDK1/CCNB IC50 >250 nM
[2] = 25-250 nM, read-out: CDK2/CCNE IC50, 25-250 nM
[3] = >250 nM, read-out: CDK4/CCND IC50, >250 nM
[4] = >250 nM, read-out: CDK6/CCND IC50, >250 nM
[5] = 25-250 nM, read-out: CDK1/CCNB IC50, 25-250 nM
[6] = <25 nM, read-out: CDK2/CCNE IC50, <25 nM
[7] = 25-250 nM, read-out: CDK4/CCND IC50, 25-250 nM
[8] = 25-250 nM, read-out: CDK6/CCND IC50, 25-250 nM

Chain of CDK1/CCNB1 (P06493 whole entry): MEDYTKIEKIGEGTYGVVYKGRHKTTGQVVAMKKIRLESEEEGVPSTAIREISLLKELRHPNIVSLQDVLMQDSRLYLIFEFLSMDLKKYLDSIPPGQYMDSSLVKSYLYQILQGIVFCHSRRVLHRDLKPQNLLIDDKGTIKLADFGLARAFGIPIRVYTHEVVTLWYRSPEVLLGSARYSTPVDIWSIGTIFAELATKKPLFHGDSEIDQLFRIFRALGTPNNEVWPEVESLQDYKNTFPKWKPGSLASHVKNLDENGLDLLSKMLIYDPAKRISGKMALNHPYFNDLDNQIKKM
Chain of CDK1/CCNB1 (P14635 whole entry partner): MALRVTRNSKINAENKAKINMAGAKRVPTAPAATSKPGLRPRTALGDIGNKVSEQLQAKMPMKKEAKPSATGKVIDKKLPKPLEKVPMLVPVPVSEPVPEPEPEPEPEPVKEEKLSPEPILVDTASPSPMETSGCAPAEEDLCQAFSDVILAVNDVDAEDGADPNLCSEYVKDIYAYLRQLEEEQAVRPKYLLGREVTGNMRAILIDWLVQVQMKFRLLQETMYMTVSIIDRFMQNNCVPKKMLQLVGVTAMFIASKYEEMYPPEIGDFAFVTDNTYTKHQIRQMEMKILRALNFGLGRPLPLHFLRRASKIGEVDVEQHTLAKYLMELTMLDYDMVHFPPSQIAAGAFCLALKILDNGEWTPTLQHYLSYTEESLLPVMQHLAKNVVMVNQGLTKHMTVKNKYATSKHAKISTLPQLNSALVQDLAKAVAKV

| Structure (SMILES) | IC50 (CDK1/CCNB1; [1]) | IC50 (CDK2/CCNE1; [2]) | IC50 (CDK4/CCND3; [3]) | IC50 (CDK6/CCND1; [4]) | IC50 (CDK1/CCNB1; [5]) | IC50 (CDK2/CCNE1; [6]) | IC50 (CDK4/CCND3; [7]) | IC50 (CDK6/CCND1; [8]) |
| --- | --- | --- | --- | --- | --- | --- | --- | --- |
| N#Cc1ccc(C#Cc2nccc3cnc(Nc4cnc(O)c(N5CCNCC5)c4)cc23)cc1 [Ex 917, 4-((7-((6-hydroxy-5-(piperazin-1-yl)pyridin-3-yl)amino)-2,6-naphthyridin-1-yl)ethynyl)benzonitrile] | > 0.25 µM | 0.025 to 0.25 µM | > 0.25 µM | > 0.25 µM | – | – | – | – |
| Cc1c(-c2nccc3cnc(Nc4ccc(S(C)(=O)=O)c(N5CCN(CCO)CC5)c4)cc23)ccc2c1cnn2CC(C)(C)O [Ex 919, 1-(5-(7-((3-(4-(2-hydroxyethyl)piperazin-1-yl)-4-(methylsulfonyl)phenyl)amino)-2,6-naphthyridin-1-yl)-4-methyl-1H-indazol-1-yl)-2-methylpropan-2-ol] | > 0.25 µM | 0.025 to 0.25 µM | > 0.25 µM | > 0.25 µM | – | – | – | – |
| N#Cc1ccc(C#Cc2nccc3cnc(Nc4cnc(O)c(N5CCN(CCO)CC5)c4)cc23)cc1 [Ex 920, 4-((7-((6-hydroxy-5-(4-(2-hydroxyethyl)piperazin-1-yl)pyridin-3-yl)amino)-2,6-naphthyridin-1-yl)ethynyl)benzonitrile] | > 0.25 µM | 0.025 to 0.25 µM | > 0.25 µM | > 0.25 µM | – | – | – | – |
| Cc1c(-c2nccc3cnc(Nc4ccc(S(N)(=O)=O)cc4)cc23)ccc2c1cnn2CC(C)(C)O [Ex 921, 4-((5-(1-(2-hydroxy-2-methylpropyl)-4-methyl-1H-indazol-5-yl)-2,6-naphthyridin-3-yl)amino)benzenesulfonamide] | – | – | – | – | 0.025 to 0.25 µM | < 0.025 µM | 0.025 to 0.25 µM | 0.025 to 0.25 µM |
| Cc1c(-c2nccc3cnc(Nc4ccc(S(=O)(=O)N5CCOCC5)cc4)cc23)ccc2c1cnn2CC(C)(C)O [Ex 922, 2-methyl-1-(4-methyl-5-(7-((4-(morpholinosulfonyl)phenyl)amino)-2,6-naphthyridin-1-yl)-1H-indazol-1-yl)propan-2-ol] | > 0.25 µM | – | – | – | – | < 0.025 µM | 0.025 to 0.25 µM | 0.025 to 0.25 µM |
| Cc1c(-c2nccc3cnc(Nc4ccc(S(=O)(=O)N5CCCCC5)cc4)cc23)ccc2c1cnn2CC(C)(C)O [Ex 923, 2-methyl-1-(4-methyl-5-(7-((4-(piperidin-1-ylsulfonyl)phenyl)amino)-2,6-naphthyridin-1-yl)-1H-indazol-1-yl)propan-2-ol] | > 0.25 µM | 0.025 to 0.25 µM | > 0.25 µM | > 0.25 µM | – | – | – | – |
| Cc1c(-c2nccc3cnc(Nc4ccc(S(=O)(=O)Nc5ccccn5)cc4)cc23)ccc2c1cnn2CC(C)(C)O [Ex 924, 4-((5-(1-(2-hydroxy-2-methylpropyl)-4-methyl-1H-indazol-5-yl)-2,6-naphthyridin-3-yl)amino)-N-(pyridin-2-yl)benzenesulfonamide] | > 0.25 µM | – | – | – | – | < 0.025 µM | 0.025 to 0.25 µM | 0.025 to 0.25 µM |
| Cc1c(-c2nccc3cnc(Nc4ccc(S(=O)(=O)O)cc4)cc23)ccc2c1cnn2CC(C)(C)O [Ex 925, 4-((5-(1-(2-hydroxy-2-methylpropyl)-4-methyl-1H-indazol-5-yl)-2,6-naphthyridin-3-yl)amino)benzenesulfonic acid] | > 0.25 µM | 0.025 to 0.25 µM | > 0.25 µM | > 0.25 µM | – | – | – | – |
| Cc1cc(C)nc(NS(=O)(=O)c2ccc(Nc3cc4c(-c5ccc6c(cnn6CC(C)(C)O)c5C)nccc4cn3)cc2)n1 [Ex 926, N-(4,6-dimethylpyrimidin-2-yl)-4-((5-(1-(2-hydroxy-2-methylpropyl)-4-methyl-1H-indazol-5-yl)-2,6-naphthyridin-3-yl)amino)benzenesulfonamide] | – | – | > 0.25 µM | – | 0.025 to 0.25 µM | < 0.025 µM | – | 0.025 to 0.25 µM |
| Cc1c(-c2nccc3cnc(Nc4ccc(S(=O)(=O)Nc5ncccn5)cc4)cc23)ccc2c1cnn2CC(C)(C)O [Ex 927, 4-((5-(1-(2-hydroxy-2-methylpropyl)-4-methyl-1H-indazol-5-yl)-2,6-naphthyridin-3-yl)amino)-N-(pyrimidin-2-yl)benzenesulfonamide] | > 0.25 µM | – | > 0.25 µM | > 0.25 µM | – | < 0.025 µM | – | – |
